Measurements as given in the supplement of paper PMC10307832.

Tests used:
Assay in all cases: relative viability (nuclei count vs DMSO), 5 days (fraction); higher = more cells survive
[1] = compound: Nc1ncn([C@H]2C[C@H](O)[C@@H](CO)O2)c(=O)n1 [Decitabine] + COc1cccc2cc(-c3nc([C@H]4CC[C@H](C(=O)O)CC4)n4ncnc(N)c34)[nH]c12 [OSI-027] (partner 0.5 µM)
Method in brief: (§1)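 Nuclei were stained with Hoechst during a one-step fixation (final 0.05% Triton X-100, 1% formaldehyde, 1 ug/ml Hoechst) carried out 5 days after dosing, then counted on 4× images. The cells, lung cancer lines in 1536-well plates, had been dosed by pin tool the day after seeding with one drug alone or a fixed anchor-drug dose plus five library-drug doses (not always all listed) in √10 steps. Relative viability is the nuclei count in treated wells divided by that in vehicle wells, and each value is the median of duplicate plates.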

[2] = compound: Nc1ncn([C@H]2C[C@H](O)[C@@H](CO)O2)c(=O)n1 [Decitabine] + O=C(CCCCCCC(=O)Nc1ccccc1)NO [Vorinostat] (partner 1 µM)
Method in brief: as §1

[3] = compound: O=C(C[C@H]1NCCC[C@@H]1O)Cn1cnc2cc(Br)c(Cl)cc2c1=O (racemic) [Halofuginone] + O=C(CCCCCCC(=O)Nc1ccccc1)NO [Vorinostat] (partner 1 µM)
Method in brief: as §1

[4] = compound: O=C(C[C@H]1NCCC[C@@H]1O)Cn1cnc2cc(Br)c(Cl)cc2c1=O (racemic) [Halofuginone] + NC(=O)Nc1cc(-c2cccc(F)c2)sc1C(=O)N[C@H]1CCCNC1 [AZD7762] (partner 0.2 µM)
Method in brief: as §1

Cell Line	relative viability ([1]; first compound 0.04 µM)	relative viability ([1]; first compound 0.1265 µM)	relative viability ([1]; first compound 0.4 µM)	relative viability ([1]; first compound 1.265 µM)	relative viability ([1]; first compound 4 µM)	relative viability ([2]; first compound 0.04 µM)	relative viability ([2]; first compound 0.1265 µM)	relative viability ([2]; first compound 0.4 µM)	relative viability ([2]; first compound 1.265 µM)	relative viability ([2]; first compound 4 µM)	relative viability ([3]; first compound 0.001 µM)	relative viability ([3]; first compound 0.003162 µM)	relative viability ([3]; first compound 0.01 µM)	relative viability ([3]; first compound 0.03162 µM)	relative viability ([3]; first compound 0.1 µM)	relative viability ([4]; first compound 0.001 µM)	relative viability ([4]; first compound 0.003162 µM)	relative viability ([4]; first compound 0.01 µM)	relative viability ([4]; first compound 0.03162 µM)	relative viability ([4]; first compound 0.1 µM)
HCC-78	0.344	0.365	0.345	0.353	0.344	0.54	0.476	0.477	0.448	0.346	0.675	0.459	0.391	0.426	0.367	0.657	0.672	0.55	0.652	0.643
LCLC-97TM1	0.244	0.295	0.188	0.229	0.11	0.273	0.159	0.107	0.0989	0.0784	0.757	0.602	0.726	0.622	0.419	0.33	0.18	0.211	0.22	0.237
NCI-H838	0.359	0.324	0.279	0.273	0.29	0.701	0.595	0.641	0.383	0.34	0.752	0.746	0.703	0.507	0.16	1.02	0.799	0.933	0.876	0.751
NCI-H2347	0.382	0.478	0.34	0.402	0.383	0.522	0.542	0.521	0.379	0.424	0.769	0.561	0.55	0.611	0.395	0.673	0.745	0.681	0.822	0.538
